Patent publication US12085534B2, “Multiplexable super-resolution force spectroscopy using ultrasound methods and magnetic detection” (University of Houston System, priority 2018, dated 2024)

Tested on: 11-bp DNA: ds(CCAAT CGA CCC)
Assay: SURFS force spectrum of drug-bound DNA duplex (dissociation voltage)
Type: binding
Settings: daunomycin-11-bp DNA vs 12-bp DNA
Description: A piezo plate was placed on a piece of rubber. On top of the piezo, a water reservoir was constructed. The sample was mounted on a glass rod for scanning. The bottom of the sample, which contains the immobilized molecular system, makes contact with the water surface prior to ultrasound application. The water level was carefully monitored to be constant during experiment. […] A DNA duplex with 12-basepair (bp) was used to calculate the force resolution. The dissociation voltage was determined to be 0.204 V on the function generator, with ±0.001 V resolution. […] Because the acoustic radiation force is proportional to the ultrasound power, or V^2, the force resolution can be calculated as δF=(2δV/V)*F=(2*0.001/0.204)*45=0.5 pN (1)
In FIG. 4a, the force spectra of 12-bp DNA and daunomycin bound 11-bp DNA are compared. The two dissociation voltages were well distinguished, with the former at 0.204 V and the latter at 0.226 V. However, previous techniques of the prior art cannot distinguish the two forces, which are 45^±2 and 48^±2 pN respectively.

COc1cccc2c1C(=O)c1c(O)c3c(c(O)c1C2=O)C[C@@](O)(C(C)=O)C[C@@H]3O[C@H]1C[C@H](N)[C@H](O)[C@H](C)O1 [daunomycin]
binding strength compared with 12-bp DNA: stronger than 12-bp DNA
